Laboratory results published in paper PMC7731310, “Pogostemon cablin Triggered ROS-Induced DNA Damage to Arrest Cell Cycle Progression and Induce Apoptosis on Human Hepatocellular Carcinoma In Vitro and In Vivo” (Molecules, 2020).
Values after ≈ are worked out from the molar mass of the structure shown.

What was measured:
Mahlavu cells = assay: Regrowth assay (crystal violet), Mahlavu; conditions: PPa extract 15 μg/mL, sorafenib 0.2 μg/mL, 4 and 8 days
Description: (§2) After that, both cell lines were analyzed for flow cytometry. […] During treatments, fresh drugs were changed every two days and harvested the data at 4 and 8 days. After treatment, cells were stained with 0.1% crystal violet and absorbance was measured at 550 nm after dissolving in 0.5% acetic acid. For detection of indicated protein expressions, cells (2 × 10^6) seeded at 10 cm dishes. […] Cell lysates were collected for western blot.

MDCK = assay: MTT cell viability, MDCK normal cells; format: cell-based, Canine; conditions: Canis lupus familiaris, 48 hr, mean ± SD
Description: (§1) HCC cells (5 × 10^3/100 μL), SVEC, MDCK (1 × 10^4/100 μL), and BNL CL.2 cells (4 × 10^4/100 μL) were seeded in a 96-well plate. After incubating overnight at 37 ℃, the cells were treated with serially diluted drug concentrations for 24, 48, and 72 h. The cell viability was measured using an MTT assay.

Huh7 = assay: MTT cell viability, Huh7; format: cell-based, Human; conditions: for IC50: Homo sapiens, Huh-7, Huh7, 48 hr, mean ± SD; for Selectivity index (SI) BNL CL.2/Huh7 / Selectivity index (SI) MDCK/Huh7 / Selectivity index (SI) SVEC/Huh7: IC50 of normal cells/IC50 of HCC cells
Description: as §1

SVEC = assay: MTT cell viability, SVEC normal cells; format: cell-based; conditions: Mus musculus, 48 hr, mean ± SD
Description: as §1

Mahlavu = assay: MTT cell viability, Mahlavu; format: cell-based, Human; conditions: for IC50: Homo sapiens, Mahlavu, 48 hr, mean ± SD; for Selectivity index (SI) BNL CL.2/Mahlavu / Selectivity index (SI) MDCK/Mahlavu / Selectivity index (SI) SVEC/Mahlavu: IC50 of normal cells/IC50 of HCC cells
Description: as §1

J5 = assay: MTT cell viability, J5; format: cell-based, Human; conditions: for IC50: Homo sapiens, J5, 48 hr, mean ± SD; for Selectivity index (SI) BNL CL.2/J5 / Selectivity index (SI) MDCK/J5 / Selectivity index (SI) SVEC/J5: IC50 of normal cells/IC50 of HCC cells
Description: as §1

BNL CL.2 = assay: MTT cell viability, BNL CL.2 normal liver cells; format: cell-based; conditions: Mus musculus, 48 hr, mean ± SD
Description: as §1

HepG2 = assay: MTT cell viability, HepG2; format: cell-based, Human; conditions: for IC50: Homo sapiens, HepG2, 48 hr, mean ± SD; for Selectivity index (SI) BNL CL.2/HepG2 / Selectivity index (SI) MDCK/HepG2 / Selectivity index (SI) SVEC/HepG: IC50 of normal cells/IC50 of HCC cells
Description: as §1

HepG2 cells = assay: Regrowth assay (crystal violet), HepG2; conditions: PPa extract 15 μg/mL, sorafenib 0.2 μg/mL, 4 and 8 days
Description: as §2

Structure (SMILES)	IC50 (MDCK) [µg/mL]	IC50 (Huh7) [µg/mL]	Selectivity index (SI) BNL CL.2/Huh7 (Huh7)	Selectivity index (SI) MDCK/Huh7 (Huh7)	Selectivity index (SI) SVEC/Huh7 (Huh7)	IC50 (SVEC) [µg/mL]	IC50 (Mahlavu) [µg/mL]	Selectivity index (SI) BNL CL.2/Mahlavu (Mahlavu)	Selectivity index (SI) MDCK/Mahlavu (Mahlavu)	Selectivity index (SI) SVEC/Mahlavu (Mahlavu)	IC50 (J5) [µg/mL]	Selectivity index (SI) BNL CL.2/J5 (J5)	Selectivity index (SI) MDCK/J5 (J5)	Selectivity index (SI) SVEC/J5 (J5)	IC50 (BNL CL.2) [µg/mL]	IC50 (HepG2) [µg/mL]	Selectivity index (SI) BNL CL.2/HepG2 (HepG2)	Selectivity index (SI) MDCK/HepG2 (HepG2)	Selectivity index (SI) SVEC/HepG (HepG2)	other results
CNC(=O)c1cc(Oc2ccc(NC(=O)Nc3ccc(Cl)c(C(F)(F)F)c3)cc2)ccn1 [SOR, sorafenib]	6.95 ± 1.45 (≈ 15 µM)	1.77 ± 4.31 (≈ 3.81 µM)	6.1	3.9	4.8	8.55 ± 2.73 (≈ 18.4 µM)	6.07 ± 1.06 (≈ 13.1 µM)	1.8	1.1	1.4	2.39 ± 1.91 (≈ 5.14 µM)	4.5	2.9	3.6	10.8 ± 5.17 (≈ 23.1 µM)	3.52 ± 1.97 (≈ 7.57 µM)	3.1	2.0	2.4	inhibition of cell regrowth (Mahlavu cells): no inhibitory effect; inhibition of cell regrowth (HepG2 cells): no inhibitory effect
O=c1[nH]cc(F)c(=O)[nH]1 [5-FU, 5-Fluorouracil]	8.74 ± 0.53 (≈ 67.2 µM)	4.88 ± 3.37 (≈ 37.5 µM)				1.69 ± 2.8 (≈ 13 µM)	15 ± 3.71 (≈ 115 µM)				18.8 ± 0.91 (≈ 144 µM)				> 20	2.09 ± 1.63 (≈ 16.1 µM)				
COc1cc([C@@H]2c3cc4c(cc3[C@@H](O[C@@H]3O[C@@H]5CO[C@@H](C)O[C@H]5[C@H](O)[C@H]3O)[C@H]3COC(=O)[C@H]23)OCO4)cc(OC)c1O [VP-16, Etoposide]	3.38 ± 0.43 (≈ 5.74 µM)	5.11 ± 2.08 (≈ 8.68 µM)	1.3	0.7	0.4	1.85 ± 0.49 (≈ 3.14 µM)	4.54 ± 2.17 (≈ 7.71 µM)	1.4	0.8	0.4	3.01 ± 2.75 (≈ 5.11 µM)	2.1	1.1	0.6	6.43 ± 3.02 (≈ 10.9 µM)	4.73 ± 3.57 (≈ 8.04 µM)	1.4	0.7	0.4	
